According to ChEMBL document CHEMBL1201862, “PubChem BioAssay data set” (2004):
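Method: 48-hour compound exposure of cells in 96-well plates, five concentrations, linear interpolation of endpoints. Here, GI50 denotes the concentration required for 50% inhibition of growth.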 Calls of active or inactive are those of the source. Rule as the data show it: active = GI50 up to about 1.1 µM and inactive = higher.

How the values were obtained:
Assay in all cases: NCI anticancer screen, dose series, 48 h
[1] = tested on: 786-0
[2] = tested on: A498
[3] = tested on: A549
[4] = tested on: ACHN
[5] = tested on: BT-549
[6] = tested on: CAKI-1
[7] = tested on: CCRF-CEM
[8] = tested on: COLO 205
[9] = tested on: DU-145
[10] = tested on: EKVX
[11] = tested on: HCC 2998
[12] = tested on: HCT-116
[13] = tested on: HCT-15
[14] = tested on: HL-60
[15] = tested on: HOP-62
[16] = tested on: HT-29
[17] = tested on: Hs-578T
[18] = tested on: IGROV-1
[19] = tested on: K562
[20] = tested on: KM12
[21] = tested on: LOX IMVI
[22] = tested on: M14
[23] = tested on: MCF7
[24] = tested on: MDA-MB-231
[25] = tested on: MDA-MB-435
[26] = tested on: MDA-N
[27] = tested on: MOLT-4
[28] = tested on: Malme-3M
[29] = tested on: NCI-H226
[30] = tested on: NCI-H23
[31] = tested on: NCI-H460
[32] = tested on: NCI-H522
[33] = tested on: NCI/ADR-RES
[34] = tested on: OVCAR-3
[35] = tested on: OVCAR-5
[36] = tested on: OVCAR-8
[37] = tested on: PC-3
[38] = tested on: RPMI-8226
[39] = tested on: SF-268
[40] = tested on: SF-295
[41] = tested on: SF-539
[42] = tested on: SK-MEL-28
[43] = tested on: SK-MEL-2
[44] = tested on: SK-MEL-5
[45] = tested on: SK-OV-3
[46] = tested on: SN12C
[47] = tested on: SNB-19
[48] = tested on: SNB-75
[49] = tested on: SR
[50] = tested on: SW-620
[51] = tested on: T47D
[52] = tested on: TK-10
[53] = tested on: U-251
[54] = tested on: UACC-257
[55] = tested on: UACC-62
[56] = tested on: UO-31
[57] = tested on: OVCAR-4
[58] = tested on: RXF 393

Measured: GI50

COc1ccc(OC2OC(COC(c3ccccc3)(c3ccc(OC)cc3)c3ccc(OC)cc3)C(O)C(O)C2O)cc1 (stereo not drawn)
2.86 µM: [13]
inactive: [1] 2.32 µM | [2] 11.7 µM | [3] 2.99 µM | [4] 4 µM | [5] 12.5 µM | [6] 4.75 µM | [7] 2.08 µM | [8] 3.85 µM | [9] 21.3 µM | [10] 4.7 µM | [11] 3.44 µM | [12] 3.26 µM | [14] 2.58 µM | [15] 11.4 µM | [16] 2.4 µM | [17] 3.96 µM | [18] 5.93 µM | [19] 2.84 µM | [20] 3.55 µM | [21] 1.8 µM | [22] 2.84 µM | [23] 3.75 µM | [24] 4.6 µM | [25] 3.13 µM | [26] 4.37 µM | [27] 1.33 µM | [28] 2.77 µM | [29] 12.3 µM | [30] 3.66 µM | [31] 2.99 µM | [32] 3.49 µM | [33] 3.48 µM | [34] 4.21 µM | [35] 6.25 µM | [36] 5.24 µM | [37] 2.09 µM | [38] 4.47 µM | [39] 3.39 µM | [40] 4.28 µM | [41] 4.42 µM | [42] 2.41 µM | [43] 2.61 µM | [44] 5.06 µM | [45] 6.43 µM | [46] 2.51 µM | [47] 9.66 µM | [48] 3.32 µM | [49] 3.74 µM | [50] 3.77 µM | [51] 6.76 µM | [52] 5.33 µM | [53] 3.6 µM | [54] 6.64 µM | [55] 3.43 µM | [56] 2.06 µM

O=[Se](O)O
active: [15] 0.577 µM | [17] 0.67 µM | [18] 0.826 µM | [24] 1 µM | [29] 0.828 µM | [31] 0.762 µM | [37] 1.1 µM | [40] 0.536 µM | [41] 0.912 µM | [45] 0.984 µM | [47] 1.03 µM | [53] 0.815 µM
3.15 µM: [13]
inactive: [1] 2.47 µM | [2] 19 µM | [3] 1.15 µM | [4] 4 µM | [5] 4.9 µM | [6] 34.2 µM | [8] > 30.7 µM | [9] 1.47 µM | [10] 2.11 µM | [11] > 20.3 µM | [12] 2.36 µM | [14] 10.4 µM | [16] 3.17 µM | [19] > 28.2 µM | [20] 1.63 µM | [21] 2.76 µM | [22] 3.44 µM | [23] 9.75 µM | [25] 3.77 µM | [26] 2.24 µM | [27] > 20.1 µM | [28] 31.7 µM | [30] 3.72 µM | [32] 12.2 µM | [33] 4.57 µM | [34] 4.16 µM | [57] 7.06 µM | [35] 1.95 µM | [36] 2.88 µM | [38] 3.29 µM | [58] 3.76 µM | [39] 1.18 µM | [42] 3.27 µM | [43] 2.6 µM | [44] 2.33 µM | [46] 1.24 µM | [48] 1.49 µM | [49] 10 µM | [50] 12.9 µM | [51] > 40 µM | [52] 6.67 µM | [54] 12.6 µM | [55] 1.32 µM | [56] 2.95 µM
